Measurements reported in BindingDB's records for doi:10.1016/s0028-3908(05)80009-7 (Universit&Eacute, 1994).
Where a SMILES comes first, the peptide text is derived from it. [ ]: non-standard residue; d: D form. ξ: configuration not given here. Ile(3ξ) = CCC(C)[C@H](N)C(=O)O

biological target: T1, Pituitary adenylate cyclase-activating polypeptide (Rattus norvegicus, UniProt P13589)
T1 sequence (P13589 whole entry): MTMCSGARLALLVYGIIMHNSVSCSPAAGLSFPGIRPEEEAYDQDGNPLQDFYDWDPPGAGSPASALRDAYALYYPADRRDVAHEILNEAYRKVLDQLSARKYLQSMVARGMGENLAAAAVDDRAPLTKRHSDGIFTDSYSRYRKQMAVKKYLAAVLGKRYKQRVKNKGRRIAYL

Row | Ki [nM] | Structure (SMILES)
1 | 800 | CCC(C)[C@H](NC(=O)CNC(=O)[C@H](CC(=O)O)NC(=O)[C@@H](Cc1ccccc1)NC(=O)[C@@H](N)Cc1cnc[nH]1)C(=O)N[C@@H](Cc1ccccc1)C(=O)N[C@H](C(=O)N[C@@H](CC(=O)O)C(=O)N[C@@H](CO)C(=O)N[C@@H](Cc1ccc(O)cc1)C(=O)N[C@@H](CO)C(=O)N[C@@H](CCCN=C(N)N)C(=O)N[C@@H](Cc1ccc(O)cc1)C(=O)N[C@@H](CCCN=C(N)N)C(=O)N[C@@H](CCCCN)C(=O)N[C@@H](CCC(N)=O)C(=O)N[C@@H](CCSC)C(=O)N[C@@H](C)C(=O)N[C@H](C(=O)N[C@@H](CCCCN)C(=O)N[C@@H](CCCCN)C(=O)N[C@@H](Cc1ccc(O)cc1)C(=O)N[C@@H](CC(C)C)C(=O)N[C@@H](C)C(=O)N[C@@H](C)C(=O)N[C@H](C(=O)N[C@@H](CC(C)C)C(N)=O)C(C)C)C(C)C)[C@@H](C)O (stereo partly drawn) [[D-Phe2]PACAP-27]
2 | 8 | CCC(C)[C@H](NC(=O)CNC(=O)[C@H](CC(=O)O)NC(=O)[C@@H](Cc1ccccc1)NC(=O)[C@@H](N)Cc1cnc[nH]1)C(=O)N[C@@H](Cc1ccccc1)C(=O)N[C@H](C(=O)N[C@@H](CC(=O)O)C(=O)N[C@@H](CO)C(=O)N[C@@H](Cc1ccc(O)cc1)C(=O)N[C@@H](CO)C(=O)N[C@@H](CCCN=C(N)N)C(=O)N[C@@H](Cc1ccc(O)cc1)C(=O)N[C@@H](CCCN=C(N)N)C(=O)N[C@@H](CCCCN)C(=O)N[C@@H](CCC(N)=O)C(=O)N[C@@H](CCSC)C(=O)N[C@@H](C)C(=O)N[C@H](C(=O)N[C@@H](CCCCN)C(=O)N[C@@H](CCCCN)C(=O)N[C@@H](Cc1ccc(O)cc1)C(=O)N[C@@H](CC(C)C)C(=O)N[C@@H](C)C(=O)N[C@@H](C)C(=O)N[C@H](C(=O)N[C@@H](CC(C)C)C(=O)NCC(=O)N[C@@H](CCCCN)C(=O)N[C@@H](CCCN=C(N)N)C(=O)N[C@@H](Cc1ccc(O)cc1)C(=O)N[C@@H](CCCCN)C(=O)N[C@@H](CCC(N)=O)C(=O)N[C@@H](CCCN=C(N)N)C(=O)N[C@H](C(=O)N[C@@H](CCCCN)C(=O)N[C@@H](CC(N)=O)C(=O)N[C@@H](CCCCN)C(N)=O)C(C)C)C(C)C)C(C)C)[C@@H](C)O (stereo partly drawn) [[D-Phe2]PACAP-38] (H-H[dF]DG[Ile(3ξ)]FTDSYSRYRKQMAVKKYLAAVLGKRYKQRVKNK-NH2)
3 | 8 | CC[C@H](C)[C@H](NC(=O)CNC(=O)[C@H](CC(=O)O)NC(=O)[C@@H](C)NC(=O)[C@@H](N)Cc1cnc[nH]1)C(=O)N[C@@H](Cc1ccccc1)C(=O)N[C@H](C(=O)N[C@@H](CC(=O)O)C(=O)N[C@@H](CO)C(=O)N[C@@H](Cc1ccc(O)cc1)C(=O)N[C@@H](CO)C(=O)N[C@@H](CCCN=C(N)N)C(=O)N[C@@H](Cc1ccc(O)cc1)C(=O)N[C@@H](CCCN=C(N)N)C(=O)N[C@@H](CCCCN)C(=O)N[C@@H](CCC(N)=O)C(=O)N[C@@H](CCSC)C(=O)N[C@@H](C)C(=O)N[C@H](C(=O)N[C@@H](CCCCN)C(=O)N[C@@H](CCCCN)C(=O)N[C@@H](Cc1ccc(O)cc1)C(=O)N[C@@H](CC(C)C)C(=O)N[C@@H](C)C(=O)N[C@@H](C)C(=O)N[C@H](C(=O)N[C@@H](CC(C)C)C(N)=O)C(C)C)C(C)C)[C@@H](C)O [[DAla2]PACAP(1-27)]
4 | 0.7 | CCC(C)[C@H](NC(=O)CNC(=O)[C@H](CC(=O)O)NC(=O)[C@@H](C)NC(=O)[C@@H](N)Cc1cnc[nH]1)C(=O)N[C@@H](Cc1ccccc1)C(=O)N[C@H](C(=O)N[C@@H](CC(=O)O)C(=O)N[C@@H](CO)C(=O)N[C@@H](Cc1ccc(O)cc1)C(=O)N[C@@H](CO)C(=O)N[C@@H](CCCN=C(N)N)C(=O)N[C@@H](Cc1ccc(O)cc1)C(=O)N[C@@H](CCCN=C(N)N)C(=O)N[C@@H](CCCCN)C(=O)N[C@@H](CCC(N)=O)C(=O)N[C@@H](CCSC)C(=O)N[C@@H](C)C(=O)N[C@H](C(=O)N[C@@H](CCCCN)C(=O)N[C@@H](CCCCN)C(=O)N[C@@H](Cc1ccc(O)cc1)C(=O)N[C@@H](CC(C)C)C(=O)N[C@@H](C)C(=O)N[C@@H](C)C(=O)N[C@H](C(=O)N[C@@H](CC(C)C)C(=O)NCC(=O)N[C@@H](CCCCN)C(=O)N[C@@H](CCCN=C(N)N)C(=O)N[C@@H](Cc1ccc(O)cc1)C(=O)N[C@@H](CCCCN)C(=O)N[C@@H](CCC(N)=O)C(=O)N[C@@H](CCCN=C(N)N)C(=O)N[C@H](C(=O)N[C@@H](CCCCN)C(=O)N[C@@H](CC(N)=O)C(=O)N[C@@H](CCCCN)C(N)=O)C(C)C)C(C)C)C(C)C)[C@@H](C)O (some centres not stated) [[DAla2]PACAP(1-38)]
5 | 500 | CC[C@H](C)[C@H](NC(=O)CNC(=O)[C@H](CC(=O)O)NC(=O)[C@@H](CCCN=C(N)N)NC(=O)[C@@H](N)Cc1cnc[nH]1)C(=O)N[C@@H](Cc1ccccc1)C(=O)N[C@H](C(=O)N[C@@H](CC(=O)O)C(=O)N[C@@H](CO)C(=O)N[C@@H](Cc1ccc(O)cc1)C(=O)N[C@@H](CO)C(=O)N[C@@H](CCCN=C(N)N)C(=O)N[C@@H](Cc1ccc(O)cc1)C(=O)N[C@@H](CCCN=C(N)N)C(=O)N[C@@H](CCCCN)C(=O)N[C@@H](CCC(N)=O)C(=O)N[C@@H](CCSC)C(=O)N[C@@H](C)C(=O)N[C@H](C(=O)N[C@@H](CCCCN)C(=O)N[C@@H](CCCCN)C(=O)N[C@@H](Cc1ccc(O)cc1)C(=O)N[C@@H](CC(C)C)C(=O)N[C@@H](C)C(=O)N[C@@H](C)C(=O)N[C@H](C(=O)N[C@@H](CC(C)C)C(N)=O)C(C)C)C(C)C)[C@@H](C)O [[DArg2]PACAP(1-27)]
6 | 10 | CC[C@H](C)[C@H](NC(=O)CNC(=O)[C@H](CC(=O)O)NC(=O)[C@@H](CCCN=C(N)N)NC(=O)[C@@H](N)Cc1cnc[nH]1)C(=O)N[C@@H](Cc1ccccc1)C(=O)N[C@H](C(=O)N[C@@H](CC(=O)O)C(=O)N[C@@H](CO)C(=O)N[C@@H](Cc1ccc(O)cc1)C(=O)N[C@@H](CO)C(=O)N[C@@H](CCCN=C(N)N)C(=O)N[C@@H](Cc1ccc(O)cc1)C(=O)N[C@@H](CCCN=C(N)N)C(=O)N[C@@H](CCCCN)C(=O)N[C@@H](CCC(N)=O)C(=O)N[C@@H](CCSC)C(=O)N[C@@H](C)C(=O)N[C@H](C(=O)N[C@@H](CCCCN)C(=O)N[C@@H](CCCCN)C(=O)N[C@@H](Cc1ccc(O)cc1)C(=O)N[C@@H](CC(C)C)C(=O)N[C@@H](C)C(=O)N[C@@H](C)C(=O)N[C@H](C(=O)N[C@@H](CC(C)C)C(=O)NCC(=O)N[C@@H](CCCCN)C(=O)N[C@@H](CCCN=C(N)N)C(=O)N[C@@H](Cc1ccc(O)cc1)C(=O)N[C@@H](CCCCN)C(=O)N[C@@H](CCC(N)=O)C(=O)N[C@@H](CCCN=C(N)N)C(=O)N[C@H](C(=O)N[C@@H](CCCCN)C(=O)N[C@@H](CC(N)=O)C(=O)N[C@@H](CCCCN)C(N)=O)C(C)C)C(C)C)C(C)C)[C@@H](C)O [[DArg2]PACAP(1-38)]
7 | 600 | CC[C@H](C)[C@H](NC(=O)CNC(=O)[C@H](CC(=O)O)NC(=O)[C@H](CO)NC(=O)[C@@H](N)Cc1ccccc1)C(=O)N[C@@H](Cc1ccccc1)C(=O)N[C@H](C(=O)N[C@@H](CC(=O)O)C(=O)N[C@@H](CO)C(=O)N[C@@H](Cc1ccc(O)cc1)C(=O)N[C@@H](CO)C(=O)N[C@@H](CCCN=C(N)N)C(=O)N[C@@H](Cc1ccc(O)cc1)C(=O)N[C@@H](CCCN=C(N)N)C(=O)N[C@@H](CCCCN)C(=O)N[C@@H](CCC(N)=O)C(=O)N[C@@H](CCSC)C(=O)N[C@@H](C)C(=O)N[C@H](C(=O)N[C@@H](CCCCN)C(=O)N[C@@H](CCCCN)C(=O)N[C@@H](Cc1ccc(O)cc1)C(=O)N[C@@H](CC(C)C)C(=O)N[C@@H](C)C(=O)N[C@@H](C)C(=O)N[C@H](C(=O)N[C@@H](CC(C)C)C(N)=O)C(C)C)C(C)C)[C@@H](C)O [[Phe1]PACAP(1-27)]
